Laboratory results from patent publication US20160193216A1 (Nimbus Iris, Inc., priority 2012, published 2016).
Like-named read-outs stand apart in the source and are kept apart here.

Tests used:
IRAK4 = biological target: T1, IRAK4 (Homo sapiens, UniProt Q9NWZ3); assay: IRAK-4 activity inhibition assay (Caliper); assay type: biochemical; conditions: 37 μM ATP, 3.5 nM IRAK4
T1 sequence (Q9NWZ3 1-460): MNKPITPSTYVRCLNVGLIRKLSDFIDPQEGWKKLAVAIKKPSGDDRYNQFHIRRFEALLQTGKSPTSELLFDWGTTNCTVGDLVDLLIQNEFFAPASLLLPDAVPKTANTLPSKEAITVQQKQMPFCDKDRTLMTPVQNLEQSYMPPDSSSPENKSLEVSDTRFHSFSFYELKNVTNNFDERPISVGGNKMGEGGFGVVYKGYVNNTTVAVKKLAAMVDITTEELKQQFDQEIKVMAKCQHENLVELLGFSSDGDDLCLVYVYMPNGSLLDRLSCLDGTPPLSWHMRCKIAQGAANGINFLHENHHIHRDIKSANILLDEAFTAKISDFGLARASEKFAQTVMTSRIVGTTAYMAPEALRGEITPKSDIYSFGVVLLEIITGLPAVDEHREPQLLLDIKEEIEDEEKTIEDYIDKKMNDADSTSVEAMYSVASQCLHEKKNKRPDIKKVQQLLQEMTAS

THP-1 cells = assay: LPS induced cytokine (TNFα and IL8) production assay in THP-1 cells; assay type: cell-based; conditions: Homo sapiens, 300 ng/mL LPS
Protocol: Cytokine Production Assay
Provided compounds were also assayed in an LPS (Lipopolysacharide) or R848 (TLR-7 agonist) induced cytokine (TNFα and IL8) production assay in THP-1 cells, human peripheral blood mononuclear cells (hPBMC), and whole blood. The exemplary protocol for this assay in THP-1 cells was as follows below.
THP-1 cells from ATCC (TIB-202) were cultured in RPMI Medium 1640 (Invitrogen, Cat No. A10491-01), 10% fetal bovine serum (Invitrogen, Cat No. 10099141, Lot No. 8172882) containing 100 U/mL Penicillin, 100 μg/mL streptomycin (Invitrogen, Cat No. 15140-122), and 50 uM 2-Mercaptoethanol (Invitrogen, Cat No. 21985023). LPS-EK ultra pure (Invivogen, Cat No. tlrl-peklps) was used to induce IL8 and TNFα production, that was detected in the cell culture supernatant by IL8 HTRF kit (Cisbio, Cat No. 62IL8PEB) and TNFα HTRF kit (Cisbio, Cat No. 62TNFPEB), as per manufacturer instructions. Cells were cultured in 96 well assay plates at 100,000 cells per well, and compounds diluted in final 0.3% DMSO were pre-incubated with cells for 1 hour prior to stimulation with 300 ng/mL LPS. Cytokine production in cell supernatant was measured at 5 hours for TNFα and IL8 production, and for 16 hours for IL8 production and assessment of cell viability.
The compound numbers correspond to the compound numbers in Table 1. […] “NA” stands for “not assayed.”

| SMILES | IC50 (IRAK4) | IC50 (THP-1 cells; read-out: IL8 production IC50) | IC50 (THP-1 cells; read-out: TNFα production IC50) |
| --- | --- | --- | --- |
| CCN[C@H]1CC[C@H](Oc2ncnc3sc4c(c23)[C@@H](C[C@H](O)C(N)=O)CC4)CC1 [Compound I-136, (2S)-3-[(3R)-12-[[4-(ethylamino)cyclohexyl]oxy]-7-thia-9,11-diazatricyclo[6.4.0.0[2,6]]dodeca-1(8),2(6),9,11-tetraen-3-yl]-2-hydroxypropanamide] | < 5000 nM | ≤ 500 nM | 500 to 1000 nM |
| N#CC(C[C@H]1CCc2sc3ncnc(O[C@H]4CC[C@H](N5CCOCC5)CC4)c3c21)C(N)=O (stereo partly drawn) [Compound I-86, 2-cyano-3-((R)-4-(((1r,4R)-4-morpholinocyclohexyl)oxy)-6,7-dihydro-5H-cyclopenta[4,5]thieno[2,3-d]pyrimidin-5-yl)propanamide] | < 5000 nM |  | 1000 to 5000 nM |
| NC(=O)C[C@H]1CCc2sc3ncnc(O[C@H]4CC[C@H](N5CCCCC5)CC4)c3c21 [Compound I-214, 2-[(3R)-12-[[4-(piperidin-1-yl)cyclohexyl]oxy]-7-thia-9,11-diazatricyclo[6.4.0.0[2,6]]dodeca-1(8),2(6),9,11-tetraen-3-yl]acetamide] | < 5000 nM | ≤ 500 nM | ≤ 500 nM |
| CN(C)[C@H]1CC[C@H](Oc2ncnc3sc4c(c23)[C@@H](C[C@@H](O)C2CCCO2)CC4)CC1 (stereo partly drawn) [Compound I-88, (1R)-2-((R)-4-(((1r,4R)-4-(dimethylamino)cyclohexyl)oxy)-6,7-dihydro-5H-cyclopenta[4,5]thieno[2,3-d]pyrimidin-5-yl)-1-(tetrahydrofuran-2-yl)ethanol] | < 5000 nM | 1000 to 5000 nM | 1000 to 5000 nM |
| CN(C)[C@H]1CC[C@H](Oc2nc(Nc3ccccc3)nc3sc4c(c23)C(CC(N)=O)CC4)CC1 (stereo partly shown) [Compound I-204, 2-(12-[[4-(dimethylamino)cyclohexyl]oxy]-10-(phenylamino)-7-thia-9, 11-diazatricyclo[6.4.0.0̂[2,6]]dodeca-1(12),2(6),8, 10-tetraen-3-yl)acetamide] |  | 1000 to 5000 nM | 500 to 1000 nM |
| NC(=O)[C@@H](O)C[C@H]1CCc2sc3ncnc(N[C@H]4CC[C@H](N5CCOCC5)CC4)c3c21 [Compound I-120, (S)-2-hydroxy-3-((R)-4-(((1r,4R)-4-morpholinocyclohexyl)amino)-6,7-dihydro-5H-cycyclopenta[4,5]thieno[2,3-d]pyrimidin-5-yl)propanamide] | < 5000 nM | ≤ 500 nM | ≤ 500 nM |
| NC(=O)C(O)C[C@H]1CCc2sc3ncnc(O[C@H]4CC[C@H](N5CCOCC5)CC4)c3c21 (mixture of isomers) [Compound I-87, 2-hydroxy-3-((R)-4-(((1r,4R)-4-morpholinocyclohexyl)oxy)-6,7-dihydro-5H-cyclopenta[4,5]thieno[2,3-d]pyrimidin-5-yl)propanamide] |  | ≤ 500 nM | ≤ 500 nM |

Other lines, results leading:

| IC50 (IRAK4) | IC50 (THP-1 cells; read-out: IL8 production IC50) | IC50 (THP-1 cells; read-out: TNFα production IC50) | SMILES |
| --- | --- | --- | --- |
| < 5000 nM | 500 to 1000 nM | 1000 to 5000 nM | CO[C@H](C[C@H]1CCc2sc3ncnc(O[C@H]4CC[C@H](N(C)C)CC4)c3c21)C(N)=O [Compound I-77, (2R)-3-[(3R)-12-[[4-(dimethylamino)cyclohexyl]oxy]-7-thia-9,11-diazatricyclo[6.4.0.0[2,6]]dodeca-1(8),2(6),9,11-tetraen-3-yl]-2-methoxypropanamide] |
| < 5000 nM |  | 500 to 1000 nM | C[C@@H](O)C[C@H]1CCc2sc3ncnc(O[C@H]4CC[C@H](N(C)CC(=O)N5CCCC5)CC4)c3c21 [Compound I-109, 2-[(4-[[(3R)-3-[(2R)-2-hydroxypropyl]-7-thia-9,11-diazatricyclo[6.4.0.0[2,6]]dodeca-1(8),2(6),9,11-tetraen-12-yl]oxy]cyclohexyl)(methyl)amino]-1-(pyrrolidin-1-yl)ethan-1-one] |
|  | ≥ 5000 nM | ≥ 5000 nM | Cn1cc(Nc2nc(O[C@H]3CC[C@H](N(C)C)CC3)c3c4c(sc3n2)CCC4CC(N)=O)cn1 (stereo in doubt) [Compound I-222, 2-[(3R)-12-[[4-(dimethylamino)cyclohexyl]oxy]-10-[(1-methyl-1H-pyrazol-4-yl)amino]-7-thia-9, 11-diazatricyclo[6.4.0.0[2,6]]dodeca-1(8),2(6),9,11-tetraen-3-yl]acetamide] |
